Columns and labels:
Assay in all cases: Kinase profiling
Assay type in all cases: biochemical
[1] = target: T1, TLK2 (Homo sapiens, UniProt Q86UE8)
T1 construct: purchased ProQinase (Freiburg, Germany)
Protocol: (§1) The analysis was performed by ProQinase (Freiburg, Germany).

[2] = target: T2, VRK2 (Homo sapiens, UniProt Q86Y07)
T2 construct: purchased ProQinase (Freiburg, Germany)
Protocol: as §1

[3] = target: T3, CK1epsilon (Homo sapiens, UniProt P49674)
T3 construct: purchased ProQinase (Freiburg, Germany)
Protocol: as §1

[4] = target: T4, FLT3 (Homo sapiens, UniProt P36888)
T4 construct: purchased ProQinase (Freiburg, Germany)
T4 sequence (P36888 27-993): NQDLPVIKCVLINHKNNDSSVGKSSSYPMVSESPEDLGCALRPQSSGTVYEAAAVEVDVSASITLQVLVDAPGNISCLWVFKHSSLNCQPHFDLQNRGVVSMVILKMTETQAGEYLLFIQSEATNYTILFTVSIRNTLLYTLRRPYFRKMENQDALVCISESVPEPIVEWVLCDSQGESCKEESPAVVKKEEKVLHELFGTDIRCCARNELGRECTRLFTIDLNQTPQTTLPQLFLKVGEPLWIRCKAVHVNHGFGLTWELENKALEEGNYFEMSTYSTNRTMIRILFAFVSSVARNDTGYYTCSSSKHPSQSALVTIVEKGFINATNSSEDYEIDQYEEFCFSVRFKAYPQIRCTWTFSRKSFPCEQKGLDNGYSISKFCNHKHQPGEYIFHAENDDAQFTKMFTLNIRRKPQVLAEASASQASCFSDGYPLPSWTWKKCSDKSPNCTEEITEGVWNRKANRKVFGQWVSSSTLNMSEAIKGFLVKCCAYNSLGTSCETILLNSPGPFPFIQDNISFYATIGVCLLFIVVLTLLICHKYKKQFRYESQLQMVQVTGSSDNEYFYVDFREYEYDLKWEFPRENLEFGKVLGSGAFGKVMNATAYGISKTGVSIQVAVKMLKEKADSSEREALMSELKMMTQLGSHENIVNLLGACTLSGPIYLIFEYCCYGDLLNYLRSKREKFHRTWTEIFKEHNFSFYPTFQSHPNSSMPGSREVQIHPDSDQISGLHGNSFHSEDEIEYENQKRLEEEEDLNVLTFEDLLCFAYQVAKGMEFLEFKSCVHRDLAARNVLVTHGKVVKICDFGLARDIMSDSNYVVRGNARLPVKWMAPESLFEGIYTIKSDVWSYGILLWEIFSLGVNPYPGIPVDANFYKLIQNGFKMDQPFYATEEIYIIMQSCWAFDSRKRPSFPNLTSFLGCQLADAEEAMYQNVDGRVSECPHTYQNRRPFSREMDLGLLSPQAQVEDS
Protocol: as §1

[5] = target: T5, AKT3 (Homo sapiens, UniProt Q9Y243)
T5 construct: purchased ProQinase (Freiburg, Germany)
Protocol: as §1

[6] = target: T6, PKA (Homo sapiens, UniProt P17612)
T6 construct: purchased ProQinase (Freiburg, Germany)
Protocol: as §1

[7] = target: T7, GSG2 (Homo sapiens, UniProt Q8TF76)
T7 construct: purchased ProQinase (Freiburg, Germany)
T7 sequence (Q8TF76 1-798): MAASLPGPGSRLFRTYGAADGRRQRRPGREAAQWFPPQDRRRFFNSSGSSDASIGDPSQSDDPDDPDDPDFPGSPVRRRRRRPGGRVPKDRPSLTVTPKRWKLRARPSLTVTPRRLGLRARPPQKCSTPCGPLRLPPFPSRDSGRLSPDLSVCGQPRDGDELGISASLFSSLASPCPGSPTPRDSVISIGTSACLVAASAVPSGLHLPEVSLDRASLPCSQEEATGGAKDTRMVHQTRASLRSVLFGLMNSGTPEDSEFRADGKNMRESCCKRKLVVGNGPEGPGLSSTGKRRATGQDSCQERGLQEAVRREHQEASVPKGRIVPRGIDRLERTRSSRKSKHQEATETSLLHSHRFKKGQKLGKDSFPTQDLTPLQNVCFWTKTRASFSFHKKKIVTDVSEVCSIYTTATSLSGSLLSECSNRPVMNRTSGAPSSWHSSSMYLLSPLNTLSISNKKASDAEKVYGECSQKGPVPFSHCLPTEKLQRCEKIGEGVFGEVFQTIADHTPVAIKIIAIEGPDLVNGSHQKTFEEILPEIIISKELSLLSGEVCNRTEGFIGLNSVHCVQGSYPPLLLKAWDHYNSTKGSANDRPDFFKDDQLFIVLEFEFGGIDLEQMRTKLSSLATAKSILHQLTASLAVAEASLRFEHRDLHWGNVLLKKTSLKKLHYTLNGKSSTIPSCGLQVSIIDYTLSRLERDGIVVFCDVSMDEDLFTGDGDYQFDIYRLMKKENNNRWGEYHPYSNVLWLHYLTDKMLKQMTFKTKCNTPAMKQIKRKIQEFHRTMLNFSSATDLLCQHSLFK
Protocol: as §1

[8] = target: T8, CAMK2D (Homo sapiens, UniProt Q13557)
T8 construct: purchased ProQinase (Freiburg, Germany)
Protocol: as §1

[9] = target: T9, GSK3beta (Homo sapiens, UniProt P49841)
T9 construct: purchased ProQinase (Freiburg, Germany)
Protocol: as §1

[10] = target: T10, ACVR2B (Homo sapiens, UniProt Q13705)
T10 construct: purchased ProQinase (Freiburg, Germany)
Protocol: as §1

T3 sequence (P49674 whole entry): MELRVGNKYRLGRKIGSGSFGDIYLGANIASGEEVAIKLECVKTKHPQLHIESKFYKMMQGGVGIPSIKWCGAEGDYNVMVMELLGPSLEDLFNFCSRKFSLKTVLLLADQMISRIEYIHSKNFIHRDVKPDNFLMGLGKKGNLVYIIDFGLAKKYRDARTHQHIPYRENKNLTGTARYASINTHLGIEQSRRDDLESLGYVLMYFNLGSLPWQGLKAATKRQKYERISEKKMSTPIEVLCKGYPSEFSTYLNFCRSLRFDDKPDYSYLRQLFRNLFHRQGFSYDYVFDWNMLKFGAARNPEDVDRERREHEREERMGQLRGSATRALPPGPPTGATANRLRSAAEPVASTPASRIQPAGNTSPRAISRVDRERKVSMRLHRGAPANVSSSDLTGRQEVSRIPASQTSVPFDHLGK
T2 sequence (Q86Y07 whole entry): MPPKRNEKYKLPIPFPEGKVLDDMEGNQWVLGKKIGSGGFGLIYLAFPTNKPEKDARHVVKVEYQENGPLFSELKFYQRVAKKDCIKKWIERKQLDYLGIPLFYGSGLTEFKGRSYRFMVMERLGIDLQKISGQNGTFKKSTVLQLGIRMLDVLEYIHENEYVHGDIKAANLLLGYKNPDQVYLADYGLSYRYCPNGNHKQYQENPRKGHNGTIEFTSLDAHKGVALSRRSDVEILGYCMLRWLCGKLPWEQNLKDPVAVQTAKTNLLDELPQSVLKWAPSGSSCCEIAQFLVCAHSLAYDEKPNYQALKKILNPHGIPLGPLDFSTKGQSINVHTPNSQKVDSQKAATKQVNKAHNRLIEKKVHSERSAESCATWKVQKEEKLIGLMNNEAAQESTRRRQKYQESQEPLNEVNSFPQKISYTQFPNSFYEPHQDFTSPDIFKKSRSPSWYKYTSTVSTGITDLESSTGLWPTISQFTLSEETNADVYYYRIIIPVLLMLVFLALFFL
T8 sequence (Q13557 whole entry): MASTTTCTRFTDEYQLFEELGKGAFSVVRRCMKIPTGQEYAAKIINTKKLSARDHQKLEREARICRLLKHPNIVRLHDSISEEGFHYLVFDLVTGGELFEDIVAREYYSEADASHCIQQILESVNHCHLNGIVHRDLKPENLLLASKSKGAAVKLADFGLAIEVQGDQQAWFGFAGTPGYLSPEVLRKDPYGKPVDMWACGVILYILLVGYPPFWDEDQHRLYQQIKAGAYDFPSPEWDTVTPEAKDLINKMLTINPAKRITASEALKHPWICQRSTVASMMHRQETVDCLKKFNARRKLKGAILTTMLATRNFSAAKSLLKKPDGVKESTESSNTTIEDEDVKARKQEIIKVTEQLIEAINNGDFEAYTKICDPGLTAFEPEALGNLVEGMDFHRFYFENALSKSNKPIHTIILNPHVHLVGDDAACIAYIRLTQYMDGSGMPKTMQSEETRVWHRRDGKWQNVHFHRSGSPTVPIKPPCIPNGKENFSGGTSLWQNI
T9 sequence (P49841 whole entry): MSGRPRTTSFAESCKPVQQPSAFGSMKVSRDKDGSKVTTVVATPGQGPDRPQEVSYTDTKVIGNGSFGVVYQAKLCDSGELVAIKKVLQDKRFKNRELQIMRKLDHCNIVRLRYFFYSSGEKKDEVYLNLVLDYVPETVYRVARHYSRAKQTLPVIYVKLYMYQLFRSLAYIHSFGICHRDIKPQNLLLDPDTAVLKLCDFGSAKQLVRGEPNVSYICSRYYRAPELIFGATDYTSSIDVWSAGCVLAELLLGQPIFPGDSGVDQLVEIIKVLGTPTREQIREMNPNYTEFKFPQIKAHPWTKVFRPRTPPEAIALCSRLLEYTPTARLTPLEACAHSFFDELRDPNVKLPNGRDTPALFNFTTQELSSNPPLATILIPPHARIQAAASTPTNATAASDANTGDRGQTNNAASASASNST
T5 sequence (Q9Y243 whole entry): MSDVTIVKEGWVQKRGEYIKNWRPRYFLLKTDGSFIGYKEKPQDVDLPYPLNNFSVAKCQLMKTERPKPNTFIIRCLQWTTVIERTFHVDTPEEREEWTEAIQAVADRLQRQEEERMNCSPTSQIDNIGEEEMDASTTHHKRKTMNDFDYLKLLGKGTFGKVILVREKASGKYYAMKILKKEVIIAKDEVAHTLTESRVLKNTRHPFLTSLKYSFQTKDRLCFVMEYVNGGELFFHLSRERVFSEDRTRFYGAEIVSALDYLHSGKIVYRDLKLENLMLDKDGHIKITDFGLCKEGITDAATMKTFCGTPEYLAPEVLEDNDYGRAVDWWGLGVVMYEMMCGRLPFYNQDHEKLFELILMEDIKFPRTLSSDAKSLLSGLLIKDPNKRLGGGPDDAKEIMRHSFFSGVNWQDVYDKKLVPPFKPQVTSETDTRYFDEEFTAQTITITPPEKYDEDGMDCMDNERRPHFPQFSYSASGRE
T1 sequence (Q86UE8 whole entry): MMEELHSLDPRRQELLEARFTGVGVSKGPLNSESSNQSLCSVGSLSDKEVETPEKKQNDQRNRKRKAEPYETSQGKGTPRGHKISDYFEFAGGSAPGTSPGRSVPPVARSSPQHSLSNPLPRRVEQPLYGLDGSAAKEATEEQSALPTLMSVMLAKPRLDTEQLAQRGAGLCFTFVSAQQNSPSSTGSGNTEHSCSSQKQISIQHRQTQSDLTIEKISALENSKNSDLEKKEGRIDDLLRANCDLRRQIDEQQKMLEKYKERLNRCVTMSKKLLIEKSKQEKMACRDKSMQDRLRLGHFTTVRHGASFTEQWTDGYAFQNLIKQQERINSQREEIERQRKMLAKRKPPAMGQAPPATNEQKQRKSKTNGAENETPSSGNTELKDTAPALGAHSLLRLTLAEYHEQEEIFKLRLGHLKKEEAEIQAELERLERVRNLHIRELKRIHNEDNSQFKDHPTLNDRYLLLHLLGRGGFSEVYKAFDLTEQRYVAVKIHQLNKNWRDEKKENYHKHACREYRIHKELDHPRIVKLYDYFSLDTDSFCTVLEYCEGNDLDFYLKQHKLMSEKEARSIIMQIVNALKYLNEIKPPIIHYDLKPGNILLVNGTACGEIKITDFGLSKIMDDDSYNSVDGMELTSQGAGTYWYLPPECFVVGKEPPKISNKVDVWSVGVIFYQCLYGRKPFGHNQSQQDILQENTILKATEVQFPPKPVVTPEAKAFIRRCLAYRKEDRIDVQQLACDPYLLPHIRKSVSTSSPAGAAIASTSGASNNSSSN
T10 sequence (Q13705 19-512): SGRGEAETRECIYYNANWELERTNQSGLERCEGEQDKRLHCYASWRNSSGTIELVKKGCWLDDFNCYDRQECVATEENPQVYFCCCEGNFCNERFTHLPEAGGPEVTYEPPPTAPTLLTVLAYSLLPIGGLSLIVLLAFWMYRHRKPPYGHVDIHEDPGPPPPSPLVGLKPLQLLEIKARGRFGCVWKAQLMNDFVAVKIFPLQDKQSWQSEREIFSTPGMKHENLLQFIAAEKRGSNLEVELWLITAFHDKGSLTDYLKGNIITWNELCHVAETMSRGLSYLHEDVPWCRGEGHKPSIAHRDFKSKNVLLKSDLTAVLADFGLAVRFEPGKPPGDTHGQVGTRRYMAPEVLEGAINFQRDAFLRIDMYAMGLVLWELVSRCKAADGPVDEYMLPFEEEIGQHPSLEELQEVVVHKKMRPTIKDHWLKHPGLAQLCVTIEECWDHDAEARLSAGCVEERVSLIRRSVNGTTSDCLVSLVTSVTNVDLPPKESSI

Structure (SMILES)	Residual activity ([1]; 1.0E-05 M)	Residual activity ([1]; 1.0E-06 M)	Residual activity ([2]; 1.0E-05 M)	Residual activity ([2]; 1.0E-06 M)	Residual activity ([3]; 1.0E-05 M)	Residual activity ([3]; 1.0E-06 M)	Residual activity ([4]; 1.0E-05 M)	Residual activity ([4]; 1.0E-06 M)	Residual activity ([5]; 1.0E-05 M)	Residual activity ([5]; 1.0E-06 M)	inhibition at 10 µM [6] [%]	Residual activity ([6]; 1.0E-05 M)	Residual activity ([6]; 1.0E-06 M)	Residual activity ([7]; 1.0E-05 M)	Residual activity ([7]; 1.0E-06 M)	Residual activity ([8]; 1.0E-05 M)	Residual activity ([8]; 1.0E-06 M)	Residual activity ([9]; 1.0E-05 M)	Residual activity ([9]; 1.0E-06 M)	Residual activity ([10]; 1.0E-05 M)	also measured
O=C(Nc1ccc(F)c(Nc2ccc3c(c2)CCCCC3=O)c1)c1cccc(F)c1 [Compound 109]	207 % of control	120 % of control	108 % of control	107 % of control	15 % of control	52 % of control	91 % of control	98 % of control	102 % of control	95 % of control	≥ 50	49 % of control	86 % of control	68 % of control	93 % of control	88 % of control	92 % of control	90 % of control	82 % of control	167 % of control	inhibition at 10 µM ([3]; 10 µM, read-out: inhibition of CK1-ε): ≥ 50%; Residual activity ([10]; 1.0E-06 M): 104 % of control
O=C(Cc1ccccc1)Nc1ccc(F)c(Nc2ccc3c(c2)CCCCC3=O)c1 [Compound 100]	162 % of control	135 % of control	114 % of control	113 % of control	117 % of control	107 % of control	94 % of control	101 % of control	100 % of control	114 % of control	≥ 50	21 % of control	97 % of control	78 % of control	92 % of control	90 % of control	103 % of control	88 % of control	88 % of control	169 % of control	Residual activity ([10]; 1.0E-06 M): 95 % of control
